Here are results for one molecule from PMC8556396, “Statin-mediated disruption of Rho GTPase prenylation and activity inhibits respiratory syncytial virus infection” (Communications Biology, 2021).

In general, EC50 refers to the concentration that produces a half-maximal response. The low end stands for a more potent agent, the high end for a less potent agent. What is called inhibition is the drop in the measured response relative to a control, in per cent.

Series [1] has as its system RSV-GFP. It counts as cell-based, Respiratory syncytial virus. As for the experimental part:
WD-PNECs were cultured as per the referenced protocol. Using a sterile cytology brush, nasal scrapings were obtained from healthy volunteers with no known history of lung disease or respiratory medication use. Cells were then seeded on a collagen-coated flask and maintained in Bronchial Epithelial Cell Growth Medium (BEGM) (CC-3170, Lonza) or PneumaCult-Ex (05008, […] Technologies). Upon reaching 70% confluency, cells were passaged and seeded on collagen-coated transwell inserts (6.5 mm diameter, 0.4 µm pore size) (3413, Corning). An air–liquid interface was generated by removing media on the apical side of the cells and replacing the remaining media with PneumaCult-ALI media (05001, […] Technologies). By week 3, cells were differentiated with a ciliated phenotype. Transepithelial resistance was quantified using an ohmmeter (World Precision Instruments) to evaluate epithelial barrier function prior to experimentation. Cells were apically infected with RSV-GFP (MOI 0.01) and infection rates were quantified from GFP signal.

Series [2] deals with RSV-GFP. The series can be described thus: RSV-GFP infection of HEp-2 cells, automated imaging, dose-response. Conditions: for EC50: HEp-2, RSV-GFP MOI 0.5, treated 2 h post-viral exposure. The format is cell-based, Respiratory syncytial virus. As for the experimental part:
HEp-2 cells were seeded to black, flat, microclear-bottom 96-well plates (655096, Greiner Bio-One) at a density of 5000 cells per well and incubated at 37 °C/5% CO2 overnight. The following morning, cells were washed twice with serum-free EMEM and treated with RSV-GFP (MOI 0.5) in a minimal volume of serum-free media for 90 min under frequent agitation. Unbound virus was then removed and replaced with fresh serum-containing EMEM. All drug additions were performed 2 h post-viral exposure, unless otherwise stated. Nuclei were stained with Hoechst 33342 (H3570, Thermo Fisher Scientific) (at a final concentration of 1 µg/mL) 48 h p.i. and imaging was performed using the Cellomics ArrayScan VTI HCS Reader at ×10 magnification (SPARC BioCentre, The Hospital for Sick Children, Toronto, ON).
Automated quantification of infection rates from fluorescent images were performed in CellProfiler (v2.2.0)[86]. Major steps in the image analysis pipeline included: (1) background subtraction and smoothing, (2) segmentation of nuclei, (3) segmentation of GFP-fluorescent area, (4) object masking, and (5) measurement of nuclear number, size, and intensity. Infection rate was quantified from the ratio of nuclei within GFP-fluorescent area to the total number of nuclei (Fig. 1b). This method of analysis accounts for in vitro syncytium formation induced by RSV, whereby a single infected cell may arise from the fusion of multiple cells. Mean nuclear fluorescent intensity and size was quantified as a measure of cell viability. […]

For series [3], the system named is RSV A2. Put plainly: Immunofluorescence staining and microscopy of RSV F and N.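 For RSV N intensity (a.u.): fluorescence normalized to total nuclear count.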
Method: HEp-2 cells were seeded to No. 1 glass coverslips (1014355117NR1, Thermo Fisher Scientific) for high-resolution confocal microscopy, or black, flat, microclear-bottom 96-well plates (655096, Greiner Bio-One) for high-throughput quantification of RSV F and N immunofluorescence. Cells were infected with RSV A2 (MOI 0.5). At 48 h p.i., cells were fixed in 4% paraformaldehyde for 30 min and permeabilized with 0.3% Triton X-100 for 10 min at room temperature. F and N proteins were probed using mouse anti-RSV F (RSV3216) and mouse anti-RSV N (RSV3132) mAbs (Bio-Rad Antibodies) diluted 1:500 in PBS + 0.1% Tween-20 (PBST), or mouse anti-RSV F mAb Alexa Fluor 488 conjugate (Millipore Sigma, 133/1H) diluted 1:200 in PBST over a 1-h incubation at room temperature. This was followed by detection with secondary anti-mouse Fab fragments conjugated to Alexa Fluor 488 (4408) or 647 (4410) (Cell Signaling Technology) diluted 1:1000 in PBST over a 1-h incubation at room temperature. Fluorescent images were acquired using either the Cellomics ArrayScan VTI HCS Reader at ×10 magnification (for quantification) or Olympus IX81 Spinning Disk Confocal microscope at ×60 magnification with oil immersion (for high-resolution images). F and N immunofluorescence was quantified in CellProfiler and normalized to total nuclear count.
Series [4] has as its system RSV A2. The series can be described thus: Western blot of total viral protein levels (pan-RSV antibody). The format is cell-based, Respiratory syncytial virus. Conditions: 24 h p.i. On the procedure:
Prior studies in HEp-2 cells have shown that RSV mRNA and proteins can be detected 4–6 h p.i., while assembly is initiated roughly 10–12 h p.i., and mature viral filaments can be observed at the cell surface 16–18 h p.i.[26]–[28]. […] To verify this finding, a traditional plaque assay was performed to quantify infectious virus production from the supernatants of statin-treated RSV A2-infected HEp-2 cells. […] Lysates were also collected from RSV A2-infected HEp-2 cells (MOI 0.5) 24 h p.i. to probe viral protein expression by western blot. […] Changes to the expression and localization of the viral fusion glycoprotein (F) and nucleoprotein (N) were visualized by high-resolution confocal microscopy.
Box plots indicate the complete range (whiskers), interquartile range (box), and median (line) of measurements. […] Blots were stained using a pan-RSV polyclonal antibody (B65860G) that detects all viral antigens (see Supplementary Fig. 2). GAPDH controls were processed on a parallel blot with the same samples and protein load. Values are reported as means ± SEM (n = 3 cell lysates). d High-resolution confocal microscopy of the F (green) and N (magenta) proteins in RSV A2-infected HEp-2 cells (MOI 0.5). […] Scale bars = 20 µm. Statistics were calculated by a one-way ANOVA with a Dunnett’s multiple comparisons post hoc test (*P < 0.05, ***P < 0.001, ****P < 0.0001).
Supplementary Figure 2. Changes to viralprotein expression by statin or Rho GTPase inhibitor treatment. HEp-2 cells were infected with […]
post-viralexposure. Cell lysates were collected 24 h p.i.and viralprotein expression was probed using a pan-RSV polyclonal antibody (B65860G) which detects allviralantigens (n ≥2 cell lysates).GAPDH controlswere processed on parallelblots withthe same samples and protein load. […]

Series [5] concerns RSV A2. The series can be described thus: Quantification of infectious virus production (plaque assay). It counts as cell-based, Respiratory syncytial virus. Conditions: Fig 3B; atorvastatin 3.5 uM, simvastatin 1.5 uM; supernatants of RSV A2-infected HEp-2; replicate values. On the procedure: HEp-2 cells were seeded to six-well plates at a density of 1 × 10^6 cells per well and incubated overnight at 37 °C/5% CO2. The following morning, cells were infected with RSV A2 (MOI 1.0) and treated with drugs 2 h post-viral exposure. The supernatant, containing progeny virions, was collected 48 h p.i., snap frozen, and stored at −80 °C. Quantification of infectious virus particles was performed by a traditional plaque assay. HEp-2 cells were seeded to six-well plates at a density of 1.5 × 10^6 cells per well and grown to 90% confluency. Cells were incubated with serial dilutions of the collected supernatants for 90 min at 37 °C/5% CO2 under frequent agitation. The inoculant was then removed and replaced with 4 mL of 1:1 4% FBS DMEM-F12/1% agarose. Plates were incubated for 5 days at 37 °C/5% CO2. Cells were then fixed with 10% formalin for 30 min at room temperature. After fixation and removal of agarose from each well, the cells were stained with 0.05% neutral red and plaques were quantified under a dissecting microscope.

The test system of series [6] is RSV-GFP. The series can be described thus: Time-of-drug addition assay. It counts as cell-based, Respiratory syncytial virus. Conditions: for antiviral effect by time of addition: 3.5 µM; for RSV-GFP inhibition (% of maximum): MOI 2.0, read 24 h p.i. As for the experimental part: Time-of-drug addition assays are routinely used to assess the approximate stage of viral infection affected by a drug[25]. HEp-2 cells were seeded to black, flat, microclear-bottom 96-well plates (Greiner Bio-One) and infected with RSV-GFP (MOI 2.0). […]. RSV-GFP infection rates were quantified 24 h p.i to approximately capture a single cycle of infection.

Where “and” joins values, the source holds several entries; their conditions need not be identical. Equal values may be shown once. Where a name gives a salt, the structure may show the parent alone.

In the case of `CC(C)c1c(C(=O)Nc2ccccc2)c(-c2ccccc2)c(-c2ccc(F)cc2)n1CC[C@@H](O)C[C@@H](O)CC(=O)O` [Atorvastatin, Atorvastatin calcium salt trihydrate], the “reduction of RSV-GFP infection” value in the series with RSV-GFP [1] (atorvastatin 5.0 µM, 72 h post-infection, mean ± SEM) amounted to 67.4 ± 11.5%. The “cellular viability of PNECs” value in the series with RSV-GFP [1] (microscopic appearance and barrier integrity) was “Cellular viability remained intact”. Further, the 50% effective concentration (EC50) in the series with RSV-GFP [2] was 2560 nM; in the series with RSV-GFP [2] (human respiratory syncytial virus, HEp-2, 2 h), 2600 nM. Besides, the inhibition at 0.1 µM in the series with RSV-GFP [2] (human respiratory syncytial virus, HEp-2, 48 h, read-out: RSV-GFP inhibition (%), log Conc (uM) -1, replicate values) was 5.55%. The “RSV N intensity (a.u.)” value in the series with RSV A2 [3] (Fig 5C, statin alone: atorvastatin 3.5 uM, simvastatin 1.5 uM) was 0.7327 a.u. and 0.5028 a.u. and 0.4468 a.u. and 0.7381 a.u. The “effect of atorvastatin co-treatment with CN04” value with RSV A2 [3] (atorvastatin 3.5 µM with CN04 1.0 µM) was “negated the pro-viral effects of Rho GTPase activation”. Also, in the series on RSV A2 [4] (MOI 0.5, atorvastatin 3.5 uM, simvastatin 1.5 uM, one value per lysate), the “Total viral protein levels (GAPDH normalized)” value was 1.385 and 1.458 and 1.299. Besides, the “total viral protein levels by western blot” value in the series on RSV A2 [4] (atorvastatin 3.5 µM, simvastatin 1.5 µM, EHT 1864 20.0 µM) was “decrease in total viral protein levels”. The “Virus titre (log10 PFU/mL)” value in the series on RSV A2 [5] was 4.38 log10 PFU/mL and 4.4624 log10 PFU/mL and 4.176 log10 PFU/mL and 4.322 log10 PFU/mL. The “antiviral effect by time of addition” value in the series on RSV-GFP [6] (added 8–22 h p.i.) was “loss in antiviral effect”; with RSV-GFP [6] (added 2 h pre-infection vs. 2–6 h post-infection) it was “No difference in antiviral effect”. The “RSV-GFP inhibition (% of maximum)” value in the series on RSV-GFP [6] (atorvastatin 3.5 µM added 2 h p.i.) was 93.8741 % of maximum and 100 % of maximum and 63.7076 % of maximum and 87.4617 % of maximum; in the series with RSV-GFP [6] (atorvastatin 3.5 µM added 4 h p.i.), 79.9181 % of maximum and 67.4308 % of maximum and 95.7721 % of maximum and 95.1175 % of maximum; in the series with RSV-GFP [6] (atorvastatin 3.5 µM added 6 h p.i.), 73.0198 % of maximum and 92.897 % of maximum and 83.1029 % of maximum and 75.3925 % of maximum; in the series on RSV-GFP [6] (atorvastatin 3.5 µM added 8 h p.i.) it was 73.881 % of maximum and 38.0526 % of maximum and 68.6457 % of maximum and 56.4404 % of maximum; in the series on RSV-GFP [6] (atorvastatin 3.5 µM added -2 h p.i.) it was 95.6726 % of maximum and 68.3345 % of maximum and 91.0474 % of maximum and 75.5348 % of maximum.
